Source: patent EP2628732A1, “Novel crystalline form of rilpivirine hydrochloride” (Sandoz AG, priority 2012, dated 2013)
One block for each compound: values may come before it.

Key:
[1] = Solubility determination in 0.01 N aqueous HCl (gravimetric, suspensions stirred, sampled after 30 min); assay type: physicochemical; conditions: 0.01 N aqueous HCl at 25 ± 0.1 °C, samples taken after 30 min, monohydrochloride
Description: The solubility data of form E of the present invention and forms A and C of EP1632232 B1 in 0.01 N aqueous HCl at 25 ± 0.1 °C are presented in table 1. Table 1: Solubility data in 0.01 N aqueous HCl at 25 ± 0.1 °C Suspensions of forms A, C and E in 0.01 N aqueous HCl were stirred in closed vessels with a diameter of 25 mm in a thermostatic water bath at 25 ± 0.1 °C. Before the solute was added the solvent was equilibrated to the temperature. Three samples of each modification were taken with […] filter holders attached to volumetric pipettes (2 mL) via a small glass tube after 30 min. They were sucked through Millipore membrane filters (0.45 μm) and 2 mL of the clear solution were poured in vessels which had been dried and tared before. The hydrochloric acid was evaporated in a drying chamber at 60 °C for approximately 15 h before the temperature was further increased to 80 °C for approximately 3 h. To remove residue water, the vessels were subsequently dried at 110 °C and 60 mbar for approximately 3 h. Afterwards the vials with the residue were cooled to room temperature in an exsiccator and weighed on an analysis balance (Mettler AT250). The difference in weight to the tare weight was then measured to determine the solubilities.

[2] = Water content at defined relative humidity; assay type: physicochemical

- Solubility ([1]; listed as A): 80 µg/mL
SMILES: Cc1cc(C=CC#N)cc(C)c1Nc1ccnc(Nc2ccc(C#N)cc2)n1.Cl [Form A, 4-[[4-[[4-(2-Cyanoethenyl)-2,6-dimethylphenyl]amino]-2-pyrimidinyl]amino]benzonitrile monohydrochloride]

- Solubility ([1]; listed as E): 270 µg/mL
- water ([2]; at a relative humidity of about 0 %): about 0%
- water ([2]; at a relative humidity of about 90 %): about 0.8%
SMILES: Cc1cc(C=CC#N)cc(C)c1Nc1ccnc(Nc2ccc(C#N)cc2)n1.Cl [Form E, 4-[[4-[[4-(2-Cyanoethenyl)-2,6-dimethylphenyl]amino]-2-pyrimidinyl]amino]benzonitrile monohydrochloride]

- Solubility ([1]; listed as C): 100 µg/mL
SMILES: Cc1cc(C=CC#N)cc(C)c1Nc1ccnc(Nc2ccc(C#N)cc2)n1.Cl [Form C, 4-[[4-[[4-(2-Cyanoethenyl)-2,6-dimethylphenyl]amino]-2-pyrimidinyl]amino]benzonitrile monohydrochloride]
